# Reference: patent publication US10328075B2, “Method of treatment and compounds for use therein” (Baker Heart and Diabetes Institute, priority 2015, dated 2019)
# No end group written: not given here.
# Legend:
# Type in all cases: in vivo, mouse
# [1] = test system: myocardial I-R injury in C57BL/6 mice; assay: Myocardial I-R in mice: cardiac necrosis after 24 h reperfusion (infarct size, plasma cTnI); conditions: for Cardioprotection: Infarct size: Table 9; for Cardioprotection: isolated cardio-myocytes in vitro & intact heart subjected to MI in vivo; for Reduction of infarct size / Effect on plasma cTnI levels: small molecules 50 mg/kg i.p., Ac2-26 1 mg/kg i.v.
# Procedure: (§1) Male C57BL/6 mice were breed and housed in the AMREP Animal Centre and maintained under a 12 h light/dark cycle. After anaesthesia (i.p., ketamine 80 mg/kg, xylazine 20 mg/kg and atropine 1.2 mg/kg), mice were randomly assigned to 24 h, 48 h and 7 days reperfusion groups and underwent reversible left arterial descending (LAD) ligation as described (Gao XM, 2011; JMCC, 50; Gao XM, 2000, JMCC). Following sedation, mice were intubated and ventilated (Harvard apparatus, MA, USA) with room air mixed with oxygen (tidal volume 0.25 mL, 150 breath/min), and placed on a heating pad. A left thoractomy will be made via the ˜third intercostal space, where the beating heart was located.
# (§2) The LAD was reversibly ligated using 7-0 silk suture with a slipknot enclosing two releasing rings. Regional ischaemia was confirmed by pale colour of the ligated area. Air was then evacuated from the chest, the cavity was closed and normal respiration was restored. After 40-60 min of ischaemia, blood flow through the left coronary artery was re-established by releasing the slipknot. Sham-operated mice underwent identical surgical procedures except the coronary arteries were not ligated. Three cohorts of mice were scheduled. Cohort 1 was subjected to 40 min ischaemic-24 h reperfusion for the assessment of cardiac necrosis. Cohort 2 was subjected to 60 min occlusion with 48 h reperfusion for the quantification of cardiac and systemic inflammation. The last cohort was subjected to 7 d reperfusion and early cardiac fibrosis was assessed.
# (§3) Treatment with study drugs: Animals were randomly assigned to different groups and all treatments were administrated 5 min prior to reperfusion of the LAD. The peptide Ac2-26 (1 mg kg^−1) (Chemieliva, Chongqing, China) and its vehicle (10% dimethyl sulfoxide (DMSO) in saline) were intravenously (i.v.) injected via the tail vein. […] Mice then received drug or vehicle injections daily until the experimental endpoint. The two different vehicles groups reflect different study drug solubility and administration routes.
# Assessment of cardiac necrosis: The optimal time point for assessment of cardiac necrosis is 24 h reperfusion after an ischaemic insult. Plasma levels of cTnI were determined using a commercially available, high-sensitivity rat cTnI ELISA kit (Life Diagnostic Inc., Pennsylvania, USA) as per the manufacturer's instructions. To evaluate the size of the infarction in relation to the area-at-risk (AAR), infarct size (IS) and LV size, 2,3,5-triphenyltetrazolium chloride (TTC) staining was performed. The LAD was tightly re-occluded in anaesthetised mice after 24 h of reperfusion and Evans blue dye (0.1 mL, 5%) was injected as a bolus into the LV. The heart was then excised and rinsed in cold saline to remove excess dye. The LV was isolated, frozen at −20° C. and then cut transversely into six to seven slices at 1.0 mm thickness. LV slices were incubated for 45 min with 1.5% TTC solution at 37° C. The presence of Evans blue indicated perfusion, whereas its absence indicated lack of perfusion to that region, whereas the brick red areas indicate viable myocardium, white or yellowish regions demarcate necrotic tissue. The slices were mounted between glass slides, and images were acquired digitally using […] microscope (Leica Wild M3B, Heerbrugg, Switzerland) coupled with digital camera (Nikon Cool-PIX4500, Tokyo, Japan). The images were analyzed using Image J analysis program (Version 1.45S, National Institute of Health, USA). The non-ischaemic zone (blue area), area-at-risk zone (AAR, red and white or yellow areas), infarct zone (white or yellow areas) and total LV were outlined and quantified blindly. Infarct size was calculated as percentage of infarct zone/risk zone.
# Animal Surgery: Adult C57BL/6 mice were randomly assigned to myocardial ischemia-reperfusion (I-R) injury or sham in vivo. […]
# [2] = Plasma levels and pharmacokinetics in mice; conditions: for Tmax / half-life: mouse, in vivo, Table 9, mice
# [3] = test system: myocardial I-R injury in C57BL/6 mice; assay: Myocardial I-R in mice: cardiac inflammation after 48 h reperfusion; conditions: for Effect on LV injury score / cell infiltration (H&E) / Effect on LV macrophage (CD68+) signal / Reduction of LV neutrophil content (Ly-6B.2) / Effect on LV neutrophil (Ly-6B.2) signal (in words): 60 min ischaemia, 48 h reperfusion
# Procedure: as §1, §2, §3
# Assessment of cardiac inflammation: LV tissue embedded in OCT compound following 60 min ischaemia and 48 h reperfusion were sectioned at 6 μm for immunofluorescent analysis. Sections were pre-incubated with 4% paraformaidehyde for 20 min and 10% normal goat serum for a further 30 min. Sections were then incubated at room temperature (RT) with either CD68+ primary antibody or Ly-6B.2 primary antibody (1:200, ABD Serotec, Raleigh, USA) for 1 h, followed 30 min incubation with the Alexa Fluor 546 secondary antibody (1:200, Invitrogen, Carlsbad, USA), to detect cardiac macrophage and neutrophil infiltration, respectively. Finally, sections were incubated with 0.001% Hoechst 33342 (Invitrogen, Melbourne, Australia) for 30 min, to elicit nuclear staining. Single images were photographed using a Nikon A1R confocal microscope (Nikon Instruments Inc., NY, USA) under 20× magnification, and 9×9 single images were then automatically stitched together using NIS-Elements AR software (version 4.10 for Windows, Nikon Instruments Inc., NY, USA) to form each whole LV section. The images for infarct area were captured under 40× magnification, and the stitched images were then analysed using Fiji software (version 1.48c for Max OS X, National Institutes of Health, USA). The threshold was set for each image, to enable optimal sensing of red fluorescence intensity above threshold, and the software then automatically quantified these red fluorescent signals.
# Assessment of cardiac histology and fibrosis: LV hearts fixed in NBF after 40 min ischaema and 7 d reperfusion were embedded in paraffin by the Alfred Pathology Service (Melbourne, Australia) and sectioned at 4 μm with a Leica 2135 microtome (Leica Microsystems, Wetzlar, Germany). Sections were stained with haematoxylin and eosin (H&E) for assessment of myocardial morphology, or picrosirius red (0.1%, Fluka, Bucks, Switzerland; pH2) for cardiac collagen deposition. […]
# [4] = mice, 40 min ischaemia, 24 h reperfusion
Molecule,Cardioprotection: Infarct size ([1]; mice),Cardioprotection [1],"Effect on cardiac necrosis (cardioprotective action) 24 h post I-R ([1]; mice, 50 mg/kg i.p.)","Reduction of infarct size [1, 4] [%]","Reduction of infarct size ([1]; mice, 40 min ischaemia, 24 h reperfusion, listed as Cmpd17b) [%]","Effect on plasma cTnI levels ([1]; mice, 24 h reperfusion)",Tmax [2] [h],half-life [2] [h],Effect on cardiac inflammation 48 h post I-R ([3]; 50 mg/kg i.p.),Effect on LV injury score / cell infiltration (H&E) [3],Effect on LV macrophage (CD68+) signal [3],Reduction of LV neutrophil content (Ly-6B.2) [3],Effect on LV neutrophil (Ly-6B.2) signal (in words) ([3]; 50 mg/kg i.p.),Cardioprotection: Inflammation ([3]; Table 9),"Effect on infarct size (in words) ([1]; mice, 40 min ischaemia, 24 h reperfusion, 50 mg/kg i.p.)","Plasma level approximately 20 h after the final dose (in words) ([2]; mice subjected to 7 days reperfusion, 50 mg/kg/day i.p.)","Effect on LV neutrophil (Ly-6B.2) signal (in words) ([3]; 50 mg/kg i.p., listed as Cmpd43, 50 mg/kg)"
"COc1cccc(Cc2cc(C)nn(C(C)C(=O)Nc3ccc(Br)cc3)c2=O)c1 (centres unmarked) [BIDI-001, N-(4-bromophenyl)-2-[5-(3-methoxybenzyl)-3-methyl-6-oxo-6H-pyridazin-1-yl]-propionamide]",↓↓,conferred cardioprotection,reduces cardiac necrosis,~34,~35,significantly reduced,0.5,7.6,reduces cardiac inflammation,not,tended to be reduced,~50%,significantly attenuated the Ly-6B.2 neutrophil signal by almost half,↓↓,–,–,–
CC(C)C1C(NC(=O)Nc2ccc(Cl)cc2)C(=O)N(c2ccccc2)N1C (centres unmarked) [BIDI-002],–,–,lacked cardioprotective actions,–,–,not seen,2,3.8,–,significantly attenuated,tended to be reduced,–,–,–,not,micromolar range,absent
Cc1cc(Cc2cccnc2)c(=O)n(CC(=O)Nc2ccc(Cl)cc2)n1 [MIPS-0010396],↓↓,confers cardioprotection,–,–,–,–,1,11.7,–,–,–,–,–,–,–,–,–
"Ac2-26: Annexin-A1 N-terminal peptide, peptide ANX-A1 mimetic (Ac-AMVSEFLKQAWFIENEEQEYVQTVK; UniProt P04083 2-26, looked up, fragment)",–,–,–,~25,–,non-significant trend,–,–,–,significantly inhibited,non-significant trend,approximately 35%,–,–,–,–,–
